# Source: patent US12220421B2, “Inhibitors of C. difficile spore germination” (THE BOARDS OF REGENTS OF THE NEVADA SYSTEM OF HIGHER …, priority 2021, dated 2025)
# Like-named read-outs stand apart in the source and are kept apart here.
# Test system: C. difficile R20291 spores
# Experiment: C. difficile spore germination assay (optical density, OD580)
# Settings: 6 mM taurocholate, 12 mM glycine; for activity at 125 µM / IC50: Clostridioides difficile, R20291SPORES
# [1] = read-out: % Germination (125 μM), Table 5, compound 125 μM, 100% indicates no inhibition
# [2] = read-out: % Germination, Table 2, compound 125 μM, ± standard deviation
# [3] = read-out: % Germination, Table 3, compound 125 μM, ± standard deviation
SMILES,activity at 125 µM [1] [%],activity at 125 µM [3] [%],further results
COc1ccccc1NC(=O)CC[C@@H](C)[C@H]1CC[C@H]2[C@@H]3[C@@H](O)C[C@]4(C)C[C@H](O)CC[C@]4(C)[C@H]3CC[C@]12C [Compound 66],100,,
COc1ccc2c(c1)N(C(=O)CC[C@@H](C)[C@H]1CC[C@H]3[C@@H]4[C@H](O)C[C@@H]5C[C@H](O)CC[C@]5(C)[C@H]4C[C@H](O)[C@]13C)CC2 [Compound 7],,,activity at 125 µM [2]: 100%
C[C@H](CCC(=O)Nc1ccccc1)[C@H]1CC[C@H]2[C@@H]3CC[C@@H]4C[C@H](O)CC[C@]4(C)[C@H]3CC[C@]12C [Compound 61],100,,
C[C@H](CCC(=O)N1CCc2c(Cl)cccc21)[C@H]1CC[C@H]2[C@@H]3[C@H](O)C[C@@H]4C[C@H](O)CC[C@]4(C)[C@H]3C[C@H](O)[C@]12C [Compound 2],,,activity at 125 µM [2]: 95 ± 8%
Cc1ccc(F)cc1NC(=O)CC[C@@H](C)[C@H]1CC[C@H]2[C@@H]3[C@H](O)C[C@@H]4C[C@H](O)CC[C@]4(C)[C@H]3CC[C@]12C [Compound 56],66 ± 6,,
COc1ccccc1NC(=O)CC[C@@H](C)[C@H]1CC[C@H]2[C@@H]3CC[C@@H]4C[C@H](O)CC[C@]4(C)[C@H]3CC[C@]12C [Compound 58],,,"IC50 (Table 5): 2.4 ± 0.3 µM; % Germination (125 μM) (Table 5, compound 125 μM, 100% indicates no inhibition): 0.4 ± 3%"
Cc1nc(CC[C@@H](C)[C@H]2CC[C@H]3[C@@H]4[C@H](O)C[C@@H]5C[C@H](O)CC[C@]5(C)[C@H]4C[C@H](O)[C@]23C)nc2ccccc12 [Compound 30],,35 ± 5,IC50 (Table 3): 37 ± 4 µM
COc1ccc2cnc(CC[C@@H](C)[C@H]3CC[C@H]4[C@@H]5[C@H](O)C[C@@H]6C[C@H](O)CC[C@]6(C)[C@H]5C[C@H](O)[C@]34C)nc2c1 [Compound 37],,61 ± 5,
C[C@H](CCc1ncc2cc(F)c(F)cc2n1)[C@H]1CC[C@H]2[C@@H]3[C@H](O)C[C@@H]4C[C@H](O)CC[C@]4(C)[C@H]3C[C@H](O)[C@]12C [Compound 41],,70 ± 23,
COc1cc2cnc(CC[C@@H](C)[C@H]3CC[C@H]4[C@@H]5[C@H](O)C[C@@H]6C[C@H](O)CC[C@]6(C)[C@H]5C[C@H](O)[C@]34C)nc2cc1OC [Compound 39],,78 ± 3,
C[C@H](CCc1ncc2c(F)cccc2n1)[C@H]1CC[C@H]2[C@@H]3[C@H](O)C[C@@H]4C[C@H](O)CC[C@]4(C)[C@H]3C[C@H](O)[C@]12C [Compound 32],,36 ± 6,
C[C@H](CCc1ncc2cc(F)ccc2n1)[C@H]1CC[C@H]2[C@@H]3[C@H](O)C[C@@H]4C[C@H](O)CC[C@]4(C)[C@H]3C[C@H](O)[C@]12C [Compound 33],,7 ± 3,IC50 (Table 3): 28 ± 4 µM
C[C@H](CCC(=O)N1CCc2cc(F)ccc21)[C@H]1CC[C@H]2[C@@H]3[C@H](O)C[C@@H]4C[C@H](O)CC[C@]4(C)[C@H]3C[C@H](O)[C@]12C [Compound 4],,,IC50 (Table 2): 0.4 ± 0.04 µM; activity at 125 µM [2]: 5 ± 3%
C[C@H](CCC(=O)Nc1cccc(F)c1)[C@H]1CC[C@H]2[C@@H]3[C@H](O)C[C@@H]4C[C@H](O)CC[C@]4(C)[C@H]3CC[C@]12C [Compound 55],100,,
C[C@H](CCC(=O)Nc1ccccc1)[C@H]1CC[C@H]2[C@@H]3[C@@H](O)C[C@@H]4C[C@H](O)CC[C@]4(C)[C@H]3CC[C@]12C [Compound 65],57 ± 0.8,,
C[C@H](CCc1nc2ccccc2s1)[C@H]1CC[C@H]2[C@@H]3[C@H](O)C[C@@H]4C[C@H](O)CC[C@]4(C)[C@H]3C[C@H](O)[C@]12C [Compound 48],,,"% Germination (Table 4, compound 125 uM, ± standard deviation): 88 ± 5%"
